Measured values: ChEMBL document CHEMBL1201862, “PubChem BioAssay data set” (2004)
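48-hour exposure; five concentrations; linearly interpolated endpoints. At the GI50, growth is halved.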 The source made the active and inactive calls. Cut-off read from the data, not from the text of the source: active = GI50 up to about 1.1 µM and inactive = higher. Where a SMILES comes first, the peptide text is derived from it. [ ]: non-standard residue; d: D form. The star is where a group is joined. ξ: configuration not given here. ξF = NC(Cc1ccccc1)C(=O)O; Cbz = O=C(OCc1ccccc1)*; Aib = CC(C)(N)C(=O)O

Legend:
Experiment in all cases: NCI tumour cell line growth inhibition, 48 h
Hs-578T = test system: Hs-578T
MDA-N = test system: MDA-N
T47D = test system: T47D
BT-549 = test system: BT-549
KM-20L2 = test system: KM-20L2
M19-MEL = test system: M19-MEL
XF498 = test system: XF498
DMS-114 = test system: DMS-114

Compound	GI50 (Hs-578T)	GI50 (MDA-N)	GI50 (T47D)	GI50 (BT-549)	GI50 (KM-20L2)	GI50 (M19-MEL)	GI50 (XF498)	GI50 (DMS-114)
CC1CN=C(N(C(=O)Nc2ccc(Cl)c(Cl)c2)c2ccccc2)S1 (stereo not given)	> 100 µM (inactive)	36 µM (inactive)	20.2 µM (inactive)					
O=c1cccc2n1C[C@H]1CNC[C@H]2C1	> 100 µM (inactive)	> 100 µM (inactive)		> 100 µM (inactive)				
COC(=O)Cc1cc(O)c(C/C=C(\C)CC/C=C(\C)C(O)C(=O)C=C(C)C)cc1O (stereo not given)	41 µM (inactive)	35.5 µM (inactive)	16.5 µM (inactive)	25.6 µM (inactive)				
CN(C)CCOc1ccc2[nH]c(C(=O)N3CC(CCl)c4c3cc(N)c3ccccc43)cc2c1 (stereo not given)	< 0.01 µM (active)	< 0.01 µM (active)	< 0.01 µM (active)	< 0.01 µM (active)				
COC(=O)C(C)(C)NC(=O)C(Cc1ccccc1)NC(=O)C(C)(C)NC(=O)OCc1ccccc1 (stereo not given) (Cbz-[Aib]-[ξF]-[Aib]-OMe)		> 100 µM (inactive)	> 100 µM (inactive)					
Cn1c(=O)c2c(nc(N/N=C3/SCC(=O)N3Cc3ccccc3)n2C)n(C)c1=O	60.8 µM (inactive)	> 100 µM (inactive)	61.4 µM (inactive)	74 µM (inactive)				
CC1(C)CC23C4COC(=O)C2CCC1C3CC4=O (stereo not given)					21.4 µM (inactive)	11.9 µM (inactive)	13.7 µM (inactive)	
Cc1c(Cl)nc(Cl)nc1Cl	3.12 µM (inactive)	2.18 µM (inactive)	1.58 µM (inactive)	3.65 µM (inactive)				
COc1ccccc1-c1cc(O)c2c(C)cc(C)nc2n1	> 100 µM (inactive)		8.13 µM (inactive)	96.2 µM (inactive)				
CCCCN=C(OC1C=CCCC1)SC (stereo not given)		> 100 µM (inactive)	> 100 µM (inactive)	> 100 µM (inactive)				
Cc1cc(NC2=NCCO2)c2c(c1C)CCCC2	10.8 µM (inactive)		13.6 µM (inactive)					
CCCCSCC(NC(=O)/C=C/c1c(C)[nH]c(=O)[nH]c1=O)C(=O)OC (stereo not given)					61.7 µM (inactive)	38.4 µM (inactive)		30.1 µM (inactive)
COC(=O)c1ccc(S)c(S(=O)(=O)Nc2nc(N)n[nH]2)c1	> 100 µM (inactive)	> 100 µM (inactive)	> 100 µM (inactive)	> 100 µM (inactive)				
CN1COCc2c1ccc1cc3ccc4c(c3nc21)COCN4S(C)(=O)=O	95.9 µM (inactive)	> 100 µM (inactive)	> 100 µM (inactive)	> 100 µM (inactive)				
O=C(O)Cc1cccc2c(=O)c3cccc([N+](=O)[O-])c3[nH]c12	36 µM (inactive)	> 100 µM (inactive)	> 100 µM (inactive)	27 µM (inactive)				
CC(C)C1=CC23CCC4C(C)(C(=O)O)CCCC4(C)C2CC1C1C(=O)N(c2ccc(Cc4ccc(N5C(=O)C6C7CC8C9(C)CCCC(C)(C(=O)O)C9CCC8(C=C7C(C)C)C6C5=O)cc4)cc2)C(=O)C13 (stereo not given)	10.7 µM (inactive)	8.93 µM (inactive)	18.1 µM (inactive)					
O=NN(CCF)C(=O)NC1CCSCC1					> 100 µM (inactive)	> 100 µM (inactive)	< 0.01 µM (active)	> 100 µM (inactive)
[N-]=[N+]=NCc1nc(N)c2c3c(sc2n1)CCCC3	2.72 µM (inactive)	2.51 µM (inactive)	6.85 µM (inactive)					
Cc1cc(-n2c(/C=C/c3ccc(Cl)cc3)nc3cc(Cl)ccc3c2=O)on1	8.32 µM (inactive)	24.8 µM (inactive)	> 50 µM (inactive)	> 50 µM (inactive)				

Compound	GI50 (Hs-578T)	GI50 (MDA-N)	GI50 (T47D)	GI50 (BT-549)	GI50 (KM-20L2)	GI50 (M19-MEL)	GI50 (XF498)	GI50 (DMS-114)
CN(C)c1nc2sc3c(c2c(=O)o1)CCCC3	16.7 µM (inactive)	38.2 µM (inactive)	26.8 µM (inactive)	12.3 µM (inactive)				
C/C(CC1C2CCCC1C2)=N\NC(N)=O (stereo not given)	> 100 µM (inactive)	> 100 µM (inactive)	> 100 µM (inactive)	> 100 µM (inactive)				
CC1CCC2(CC1)NC1=C(CC(C)CC1)C1=C2CC(C)CC1 (stereo not given)	26.9 µM (inactive)	31.3 µM (inactive)	24.3 µM (inactive)	19.1 µM (inactive)				
Cn1cnc([N+](=O)[O-])c1Sc1nc2cc([N+](=O)[O-])ccc2[nH]1					24.8 µM (inactive)	17.4 µM (inactive)	10.8 µM (inactive)	
O=C(Cc1csc2[n+]1C(=O)/C(=C/c1ccc(Cl)cc1)S2)Nc1ccccc1	27.7 µM (inactive)	30.4 µM (inactive)	16.4 µM (inactive)	22.5 µM (inactive)				
Fc1ccccc1C1SCc2nc3cc4ccccc4cc3n21 (stereo not given)	26.5 µM (inactive)	79.1 µM (inactive)	14 µM (inactive)	> 100 µM (inactive)				
N=S(c1ccccc1[N+](=O)[O-])c1ccccc1[N+](=O)[O-]						2.43 µM (inactive)		
CCSc1ncnc2c(C3OC(CO)C(O)C3O)nsc12 (stereo not given)	> 100 µM (inactive)	> 100 µM (inactive)	> 100 µM (inactive)					
Cc1ccc2c(c1)/C(=N/Nc1ccccc1[N+](=O)[O-])C(=O)N2	3.93 µM (inactive)	3.37 µM (inactive)	2.83 µM (inactive)	45.8 µM (inactive)				
Cc1c(CNc2ccc(C(=O)NC(CCCNC(=O)c3ccccc3C(=O)O)C(=O)O)cc2)cnc2nc(N)nc(N)c12 (stereo not given)	0.1 µM (active)	0.001 µM (active)	0.0615 µM (active)	1.11 µM (active)				
CC(=O)OC(C)(C)C[N+](=O)[O-]					> 100 µM (inactive)	> 100 µM (inactive)		> 100 µM (inactive)
Cc1c2c(n(CCc3ccccc3)c1C)N(C)N=C(C#N)S2(=O)=O		> 100 µM (inactive)	> 100 µM (inactive)	> 100 µM (inactive)				
C=C[C@H]1CN2CCc3c([nH]c4c([C@@H]5CCCN5C)c(O)ccc34)[C@@H]2C[C@@H]1C[C@H]1c2[nH]c3ccccc3c2CCN1C	1.52 µM (inactive)	0.49 µM (active)	1.48 µM (inactive)	1.75 µM (inactive)				
O=C1NC(=O)/C(=C/c2ccc(S(=O)(=O)N/N=C/c3ccccc3)cc2)N1	> 100 µM (inactive)	> 100 µM (inactive)	> 100 µM (inactive)	> 100 µM (inactive)				
CCOP(=O)(CCCC(O)CNc1nc(N)nc(Cl)c1/N=N/c1ccc(Cl)cc1)OCC (stereo not given)	4.85 µM (inactive)	5.82 µM (inactive)	5.09 µM (inactive)	6.28 µM (inactive)				
CC1CC2=Nc3ccccc3NC(c3ccccc3)C2=C(O)O1 (stereo not given)					> 100 µM (inactive)	> 100 µM (inactive)		> 100 µM (inactive)
CCN(CC)C(=S)N/N=C(\C)c1cccc(C)n1	23.4 µM (inactive)	0.474 µM (active)	< 0.01 µM (active)	0.776 µM (active)				
CC(=O)NC(C)(C)C1CC=C(C)CC1 (stereo not given)	> 100 µM (inactive)	> 100 µM (inactive)		> 100 µM (inactive)				
NC(=O)CC(/N=C1\C(=O)OC(C(O)CO)\C1=N/C(CC(N)=O)C(=O)O)C(=O)O (stereo not given)	> 100 µM (inactive)	> 100 µM (inactive)	> 100 µM (inactive)					

Compound	GI50 (Hs-578T)	GI50 (MDA-N)	GI50 (T47D)	GI50 (BT-549)	GI50 (KM-20L2)	GI50 (M19-MEL)	GI50 (XF498)	GI50 (DMS-114)
CC(C)CC(NC(=O)C(O)C(N)Cc1ccccc1)C(=O)O (stereo not given)	> 100 µM (inactive)	> 100 µM (inactive)	> 100 µM (inactive)					
O=C(NCCNCCCNC(=O)c1cc(-c2ccccc2)nc2ccccc12)c1cccc(OCc2ccccc2)c1OCc1ccccc1	2.58 µM (inactive)	1.66 µM (inactive)	2.18 µM (inactive)	1.72 µM (inactive)				
Cn1nc(C(=O)N2CC(CCl)c3c2cc(N)c2ccccc32)cc1NC(=O)Nc1cc(C(=O)N2CC(CCl)c3c2cc(N)c2ccccc32)nn1C (stereo not given)		0.157 µM (active)	< 0.01 µM (active)	0.0718 µM (active)				
Cc1oc(N)c(S(=O)(=O)c2cc3ccccc3[n+]([O-])c2N)c1C	> 100 µM (inactive)	> 100 µM (inactive)	> 100 µM (inactive)	> 100 µM (inactive)				
CCC(=O)ONC(=O)Cn1ccc([N+](=O)[O-])n1	> 100 µM (inactive)	> 100 µM (inactive)						
COC(=O)/C(C#N)=C1\CCC(O)N1C (stereo not given)					> 100 µM (inactive)		> 100 µM (inactive)	> 100 µM (inactive)
CCCCCCCCCCCCCCCCOCC(O)CO (stereo not given)	18.4 µM (inactive)	25.7 µM (inactive)	23.4 µM (inactive)	22.2 µM (inactive)				
N=C(N)NS(=O)(=O)c1ccc(Nc2c3ccccc3nc3c(C(=O)NCCO)cccc23)cc1	0.209 µM (active)	0.267 µM (active)	0.148 µM (active)	0.143 µM (active)				
Cc1ccc(C(=O)N/N=C(\N=N\c2cccc([N+](=O)[O-])c2)c2ccc(N(CCC#N)CCC#N)cc2C)cc1	23.4 µM (inactive)	25.1 µM (inactive)	9.18 µM (inactive)	19.6 µM (inactive)				
CN(C)CCCCN1c2ccccc2Sc2ccc(N=[N+]=[N-])cc21	5.22 µM (inactive)	1.82 µM (inactive)	4.32 µM (inactive)	11.8 µM (inactive)				
O=C(O)C1C(Br)(c2ccccc2)C1(Br)c1ccccc1 (stereo not given)	37.8 µM (inactive)		17.6 µM (inactive)	19.9 µM (inactive)				
COc1ccc2c(c1)CCCc1c-2nc2ccccc2c1N	17.8 µM (inactive)	10.3 µM (inactive)	12.4 µM (inactive)	16.2 µM (inactive)				
CC1(C)N=C(C2CCCN2C(=O)OCc2ccccc2)OC1=O (stereo not given)	> 100 µM (inactive)	> 100 µM (inactive)		> 100 µM (inactive)				
CC(=O)O[C@H]1[C@H](OC(=O)CC(C)(O)CC(=O)O)C[C@]2(C)C3=C(CCC2C1(C)C)[C@]1(C)CC[C@H]([C@H]2CC[C@H](C(C)(C)O)OC2O)[C@@]1(C)[C@@H](O)C3 (stereo not given in full)	16 µM (inactive)	18.1 µM (inactive)	20.9 µM (inactive)	15.1 µM (inactive)				
CC(=O)NC1=C(NCC(C)(C)C)C(=O)c2ccccc2C1=O					57.8 µM (inactive)	21.1 µM (inactive)	25.8 µM (inactive)	
S=C(NCc1ccccn1)N/N=C/c1ccccn1	1.14 µM (inactive)	0.454 µM (active)	< 0.01 µM (active)					
CC1(C)c2ccccc2C(C)(C)C(C(=O)Nc2ccccc2)C1C(=O)O (stereo not given)					> 100 µM (inactive)	> 100 µM (inactive)		91.6 µM (inactive)
NC(=O)OCC1=C(COC(N)=O)C(=O)c2c(O)ccc(O)c2C1=O					> 100 µM (inactive)	3.46 µM (inactive)		> 100 µM (inactive)
Cc1ccc(S(=O)(=O)N/N=C2/C3CCC(C3)C2c2ccccc2)cc1 (stereo not given)	> 100 µM (inactive)	> 100 µM (inactive)	> 100 µM (inactive)	> 100 µM (inactive)				
